The subject of data set [1] is human red blood cells. Description: Hemolysis assay. It is filed as cell-based. The following applies: concentrations of up to 100 μg/ml, 37° C., 30 min. The procedure: Red blood cells (RBC) were obtained from citrated human blood by centrifugation (1,500×g; 10 min), washed three times with isotonic 20 mM phosphate-NaCl buffer (pH 7.4), and suspended in the same buffer at a concentration equivalent to 5% of the normal hematocrit. Forty-microliter aliquots of this RBC suspension were added to 0.96 ml of Pep19-4LF dilutions prepared in the same isotonic phosphate solution, incubated at 37° C. for 30 min, and centrifuged (1,500×g, 10 min). The supernatants were analyzed spectrophotometrically (with absorbance at 543 nm) for hemoglobin, and results were expressed as the percentage released with respect to sonicated controls (100% release) or controls processed without peptide (0% release).

Data set [2] has as its system HS-rats. The class given is in vivo. Here is the method:
This study was carried out on 46 male Wistar rats (Charles River Ltd, Margate, UK) weighing 230-350 g receiving a standard diet and water ad libitum. Hemorrhagic shock and quantification of organ injury and dysfunction were performed as described previously in Sordi R et al (2017) Ann Surg, 265(2):408-417. Rats were anesthetized by sodium thiopentone (120 mg/kg i.p. for induction, followed by 10 mg/kg i.v. for maintenance). Cannulation of the trachea, femoral artery (for measuring blood pressure), and carotid arteries (for blood withdrawal), jugular vein (for drug administration), and bladder (for collecting urine) were performed. Blood (up to 1 mL/min) was withdrawn via the cannula inserted in the carotid artery in order to achieve a fall in mean arterial pressure (MAP) to 27 to 32 mmHg. Thereafter, MAP was maintained at this level for a period of 90 min either by further withdrawal of blood during the compensation phase or administration shed blood during the decompensation phase. At 90 min after initiation of hemorrhage (or when 25% of the shed blood had to be re-injected to sustain MAP at 27 to 32 mmHg), animals were resuscitated with the remaining shed blood (mixed with 100 IU/mL heparinized saline) (over a period of 5 min) plus a volume of Ringer's lactate identical to the volume of blood spent during decompensation. During the last 3 h of resuscitation, urine was obtained for the estimation of creatinine clearance. Then, blood samples were collected via the carotid artery for measurement of lactate (Accutrend Plus Meter, Roche Diagnostics, West Sussex, UK) and organ injury/dysfunction parameters. Under deep anesthesia, the heart was removed to terminate the experiment. Blood samples were centrifuged to separate serum, which was used for the determination of urea, creatinine, aspartate aminotransferase (AST), alanine aminotransferase (ALT), lipase, amylase and creatine kinase (CK) by an external contract research facility (IDEXX Laboratories Ltd, West Yorkshire, UK) in a blinded fashion. In addition, lung, kidney and liver samples were taken and stored at −80° C. for further analysis. Sham-operated rats were used as control and underwent identical surgical procedures, but without hemorrhage or resuscitation. Blood pressures during the experiment were measured by Powerlab®, and recorded and analyzed by Labchart® (AD instruments Ltd, Dunedin, New Zealand).
The following groups were studied: Sham+vehicle (n=11), sham+Pep19-4LF (n=6), HS+vehicle (n=12), HS+Pep19-4LF-LD (n=8), HS+Pep19-4LF-HD (n=8), HS+Pep19-2.5-HD (n=8). Rats were administered vehicle (saline 1.5 ml/kg/h) or Pep19-4LF (low dose (LD)=66 μg/kg×h; high dose (HD)=333 μg/kg×h) or Pep19-2.5 (high dose (HD)=333 μg/kg×h) continuously for 4 h after resuscitation using infusion pump for rodents (PHD2000, 70-2000; Harvard apparatus Massachusetts, U.S). 11 rats were excluded from data analysis due to surgical/technical issues (n=5) prior to onset of HS and death during resuscitation (n=6). The doses of Pep19-4LF and Pep19-2.5 used in this study were based on efficacy seen in previous in vitro and in vivo studies (Schuerholz T et al (2013) Crit Care, 17(1):R3; Tejada G Md et al (2015) Sci Rep, 5:14292; Martin L et al (2015) PLoS One, 10(5):e0127584; Martin L et al (2015) PLoS One, 10(11):e0143583).

The conditions of data set [3]: Tejada G Md et al (2015); cited from earlier work.
For data set [4] the following is noted: therapeutic doses; cited from earlier work.
The mark [5] stands for this setting: HS-rats, high dose 333 μg/kg×h i.v., 4 h after HS, vs vehicle.

Where no end group is shown, it is not given here.

With “GKKYRRFRWKFKGKLFLFG-NH2 [Pep19-4LF, GKKYRRFRWKFKGKLFLFG]”, in data set [1], the “hemolysis (hemoglobin release)” value was “no considerable degree of hemolysis”. For the same substance, the “MAP in sham-operated rats” value in data set [2] (sham-operated rats, high dose 333 μg/kg×h) is recorded as “had no effect”.
On to “GCKKYRRFRWKFKGKFWFWG (20-amino acid peptide, Pep19-2.5) [20-mer linear synthetic antimicrobial peptide based on Limulus anti-LPS factor]”, for which, in data set [2] (HS-rats), the “liver injury caused by HS” value was “significantly attenuated”, the “pancreatic injury caused by HS” value is recorded as “significantly attenuated” and the “renal dysfunction caused by HS” value is given as “significantly attenuated”. In data set [2] (HS-rats, high dose 333 μg/kg×h i.v. continuously for 4 h after resuscitation, vs HS+vehicle), the “decline in MAP during the resuscitation period” value is recorded as “significantly attenuated”. Moreover, in data set [2] (setting [5]), the “organ injury and dysfunction caused by HS” value is “significantly attenuated”; the “rise in lactate caused by HS” value was “significantly attenuated”. In addition, the “effects of LPS and lipoproteins” value in data set [3] is listed as “neutralize”.
Take “LL-37: cathelicidin-derived human AMP (host-defence/antimicrobial peptide) [reference compound]”: the “toxicity limiting therapeutic use in man” value in data set [4] was “systemic toxicity”. Further, in data set [3], the “effects of LPS and lipoproteins” value is listed as “neutralize”.
